Results from patent publication US4990521A, “4-(aroylamino)piperidine-butanimide derivatives” (Janssen Pharmaceutica, priority 1989, dated 1991).

Assays:
[1] = Ricinus Oil Test in Rats (antidiarrheal activity); assay type: in vivo; settings: compound 1 hour before 1 ml ricinus oil orally, no diarrhea in 50% of animals 1 hour after ricinus oil, fasted female Wistar rats; for Ricinus Oil Test ED50: oral, 60 min; for ED50: Rattus norvegicus, po, 1 h
Text: The use of the compounds of formula (I), their N-oxide forms, pharmaceutically acceptable acid-addition salts and stereoisomeric forms thereof in the method of the present invention is based on their useful antidiarrheal activity. This property is clearly evidenced by the experimental data obtained in, for example, the "Ricinus oil Test in Rats". […] By virtue of their useful antidiarrheal activity, it is evident that the compounds of formula (I), their N-oxide forms, pharmaceutically acceptable acid addition salts and stereoisomeric forms can be used in the treatment of diarrhea.
Female Wistar rats were fasted overnight. Each animal was treated orally with a dose level of the compound to be tested. One hour thereafter, the animal received 1 ml of ricinus oil orally. Each animal was kept in an individual cage and 1 hour after the ricinus oil treatment, the presence or absence of diarrhea was noted. The ED50 value was determined as that dose in mg/kg body weight, at which no diarrhea was present in 50% of the tested animals. Said ED50 -values for the compounds of the present invention can be found in the first column of Table 1.

[2] = Tail Withdrawal Test in Rats (undesired central effects); assay type: in vivo; settings: oral, tail in 55° C. water, suppression of withdrawal response exceeding 10 seconds in 50% of animals, fasted male Wistar rats; for ED50: Rattus norvegicus
Procedure: Male Wistar rats were fasted overnight. Each animal was treated orally with a dose level of the compound to be tested. The thus treated rats Were put into individual restraining cages. At various time periods after administration, the lower 5 cm portion of the tail was immersed into a cup filled with water at a constant temperature of 55° C. The typical tail withdrawal response was evaluated during a 10 seconds period after the immersion. ED50 values in mg/kg body weight were determined as that dose of the test compound capable of suppressing in 50% of the tested animals the typical tail withdrawal response during a time period exceeding 10 seconds. Said ED50 values obtained for the compounds of the present invention are gathered in Table 1 column two.

CC(CC(C(=O)N(C)C)(c1ccccc1)c1ccccc1)N1CCC(NC(=O)c2cccc(C(F)(F)F)c2)C(O)C1 (single isomer, unassigned; (+)) [Compound 57, (+)-(3B,trans)-3-hydroxy-N,N,γ-trimethyl-α,α-diphenyl-4-[[3-(trifluoromethyl)benzoyl]amino]-1-piperidinebutanamide]
Ricinus Oil Test ED50 [1]: 0.31 mg/kg body weight | ED50 [2]: > 160 mg/kg

Cc1ccc([N+](=O)[O-])c(C(=O)N[C@@H]2CCN(C(C)CC(C(=O)N(C)C)(c3ccccc3)c3ccccc3)C[C@H]2O)c1 (relative stereo) [Compound 21]
ED50 [1]: ≤ 0.63 mg/kg | ED50 [2]: > 40 mg/kg

CC(CC(C(=O)N(C)C)(c1ccccc1)c1ccccc1)N1CC[C@@H](NC(=O)c2cccc(Cl)c2N)[C@H](O)C1 (relative stereo) [Compound 69, trans-4-[(2-amino-3-chlorobenzoyl)amino]-3-hydroxy-N,N,γ-trimethyl-α,α-diphenyl-1-piperidinebutanamide]
ED50 [1]: < 0.63 mg/kg | ED50 [2]: > 40 mg/kg

CC(CC(C(=O)N(C)C)(c1ccccc1)c1ccccc1)N1CCC(NC(=O)c2cccc(C(F)(F)F)c2)C(O)C1 (single isomer, unassigned; (-)) [Compound 55, (-)-(3A,trans)-3-hydroxy-N,N,γ-trimethyl-α,α-diphenyl-4-[[3-(trifluoromethyl)benzoyl]amino]-1-piperidinebutanamide]
Ricinus Oil Test ED50 [1]: 1.0 mg/kg body weight | Tail Withdrawal Test ED50 [2]: > 160 mg/kg body weight

CC(CC(C(=O)N(C)C)(c1ccccc1)c1ccccc1)N1CC[C@@H](NC(=O)c2c(Cl)cccc2Cl)[C@H](O)C1 (relative stereo) [Compound 5]
ED50 [1]: 0.31 mg/kg | ED50 [2]: ≥ 40 mg/kg

COc1cc(NC(C)=O)c(Cl)cc1C(=O)N[C@@H]1CCN(C(C)CC(C(=O)N(C)C)(c2ccccc2)c2ccccc2)C[C@H]1O (relative stereo) [Compound 64, trans-4-[[4-(acetylamino)-5-chloro-2-methoxybenzoyl]amino]-3-hydroxy-N,N,γ-trimethyl-α,α-diphenyl-1-piperidinebutanamide]
ED50 [1]: 2.5 mg/kg | ED50 [2]: > 40 mg/kg

COc1c(Cl)cc(Cl)cc1C(=O)N[C@@H]1CCN(C(C)CC(C(=O)N(C)C)(c2ccccc2)c2ccccc2)C[C@H]1O (relative stereo) [Compound 31]
ED50 [1]: 0.63 mg/kg | ED50 [2]: ~40 mg/kg

CO[C@@H]1CN(C(C)CC(C(=O)N(C)C)(c2ccccc2)c2ccccc2)CC[C@H]1NC(=O)c1cccc(C(F)(F)F)c1 (relative stereo) [Compound 52, trans-3-methoxy-N,N,γ-trimethyl-α,α-diphenyl-4-[[3-(trifluoromethyl)benzoyl]amino]-1-piperidinebutanamide]
ED50 [1]: 2.5 mg/kg | ED50 [2]: 40 mg/kg

CC(CC(C(=O)N(C)C)(c1ccccc1)c1ccccc1)N1CC[C@@H](NC(=O)c2ccccc2O)[C@H](O)C1 (relative stereo) [Compound 77, trans-3-hydroxy-4-[(2-hydroxybenzoyl)-amino]-N,N,γ-trimethyl-α,α-diphenyl-1-piperidinebutanamide]
ED50 [1]: 0.16 mg/kg | ED50 [2]: ≥ 40 mg/kg

CC(CC(C(=O)N(C)C)(c1ccccc1)c1ccccc1)N1CC[C@@H](NC(=O)c2cc(Cl)ccc2N)[C@H](O)C1 (relative stereo) [Compound 47, trans-4-[(2-amino-5-chlorobenzoyl)amino]-3-hydroxy-N,N,γ-trimethyl-α,α-diphenyl-1-piperidinebutanamide]
ED50 [1]: 0.08 mg/kg | ED50 [2]: ~40 mg/kg

CC(CC(C(=O)N(C)C)(c1ccccc1)c1ccccc1)N1CC[C@@H](NC(=O)c2cccc(N)c2O)[C@H](O)C1 (relative stereo) [Compound 68, trans-4-[(3-amino-2-hydroxybenzoyl)amino]-3-hydroxy-N,N,γ-trimethyI-α,α-diphenyl-1-piperidinebutanamide]
ED50 [1]: 0.63 mg/kg | ED50 [2]: > 40 mg/kg

CC(CC(C(=O)N(C)C)(c1ccccc1)c1ccccc1)N1CC[C@@H](NC(=O)c2ccc(F)cc2N)[C@H](O)C1.O (relative stereo) [Compound 67, trans-4-[(2-amino-4-fluorobenzoyl)amino]-3-hydroxy-N,N,γ-trimethyl-α,α-diphenyl-1piperidinebutanamide monohydrate]
ED50 [1]: < 0.04 mg/kg | ED50 [2]: > 40 mg/kg

COc1cc(Cl)ccc1C(=O)N[C@@H]1CCN(C(C)CC(C(=O)N(C)C)(c2ccccc2)c2ccccc2)C[C@H]1O (relative stereo) [Compound 30]
ED50 [1]: 0.63 mg/kg | ED50 [2]: ≥ 40 mg/kg

CC(CC(C(=O)N(C)C)(c1ccccc1)c1ccccc1)N1CC[C@@H](NC(=O)c2ccccc2OCc2ccccc2)[C@H](O)C1 (relative stereo) [Compound 29, trans-3-hydroxy-N,N,γ-trimethyl-α,α-diphenyl-4-[[2-(phenylmethoxy)benzoyl]amino]-1-piperidinebutanamide]
ED50 [1]: ≤ 0.63 mg/kg | ED50 [2]: ~40 mg/kg

COc1cc(N)c(Cl)cc1C(=O)N[C@@H]1CCN(C(C)CC(C(=O)N(C)C)(c2ccccc2)c2ccccc2)C[C@H]1OC (relative stereo) [Compound 53, trans-4-[(4-amino-5-chloro-2-methoxybenzoyl)amino]-3-methoxy-N,N,γ-trimethyl-α,α-diphenyl-1-piperidinebutanamide]
ED50 [1]: 2.5 mg/kg | ED50 [2]: ~40 mg/kg

COc1cc(N)ccc1C(=O)N[C@@H]1CCN(C(C)CC(C(=O)N(C)C)(c2ccccc2)c2ccccc2)C[C@H]1O (relative stereo) [Compound 75, trans-4[(4-amino-2-methoxybenzoyl)amino]-3-hydroxy-N,N,γ-trimethyl-α,α-diphenyl-1-piperidinebutanamide]
ED50 [1]: 2.5 mg/kg | ED50 [2]: > 40 mg/kg

CC(CC(C(=O)N(C)C)(c1ccccc1)c1ccccc1)N1CC[C@@H](NC(=O)c2cccc(Cl)c2[N+](=O)[O-])[C@H](O)C1 (relative stereo) [Compound 17]
ED50 [1]: 0.63 mg/kg | ED50 [2]: > 40 mg/kg

CC(CC(C(=O)N(C)C)(c1ccccc1)c1ccccc1)N1CC[C@@H](NC(=O)c2cc(Cl)cc(Cl)c2)[C@H](O)C1 (relative stereo) [Compound 7]
ED50 [1]: 0.31 mg/kg | ED50 [2]: > 40 mg/kg

COc1cc(N)c(Cl)cc1C(=O)N[C@@H]1CCN(C(C)CC(C(=O)N(C)C)(c2ccccc2)c2ccccc2)C[C@H]1O (relative stereo) [Compound 50, trans-4-[(4-amino-5-chloro-2-methoxybenzoyl)amino]-3-hydroxy-N,N,γ-trimethyl-α,α-diphenyl-1-piperidinebutanamide]
ED50 [1]: 2.5 mg/kg | ED50 [2]: > 40 mg/kg

CC(CC(C(=O)N(C)C)(c1ccccc1)c1ccccc1)N1CC[C@@H](NC(=O)c2cccc(C(F)(F)F)c2)[C@H](O)C1 (relative stereo) [Compound 1, trans-3-hydroxy-N,N,γ-trimethyl-α,α-diphenyl-4-[[3-(trifluoromethyl)benzoyl]amino]-1-piperidinebutanamide]
ED50 [1]: 0.15 mg/kg | ED50 [2]: > 160 mg/kg

CC(CC(C(=O)N(C)C)(c1ccccc1)c1ccccc1)N1CC[C@@H](NC(=O)c2ccc(Cl)c(Cl)c2)[C@H](O)C1 (relative stereo) [Compound 2]
ED50 [1]: 0.63 mg/kg | ED50 [2]: > 160 mg/kg

CCCC(=O)c1ccc(OC)c(C(=O)N[C@@H]2CCN(C(C)CC(C(=O)N(C)C)(c3ccccc3)c3ccccc3)C[C@H]2O)c1 (relative stereo) [Compound 34]
ED50 [1]: < 2.5 mg/kg | ED50 [2]: > 40 mg/kg

CC(CC(C(=O)N(C)C)(c1ccccc1)c1ccccc1)N1CC[C@@H](NC(=O)c2ccc(Cl)cc2N)[C@H](O)C1 (relative stereo) [Compound 70, trans-4-[(2-amino-4-chlorobenzoyl)amino]-3-hydroxy-N,N,γ-trimethyl-α,α-diphenyl 1-piperidinebutanamide monohydrate]
ED50 [1]: < 0.63 mg/kg | ED50 [2]: > 40 mg/kg

CC(CC(C(=O)N(C)C)(c1ccccc1)c1ccccc1)N1CC[C@@H](NC(=O)c2ccc(F)cc2[N+](=O)[O-])[C@H](O)C1 (relative stereo) [Compound 19]
ED50 [1]: 1.25 mg/kg | ED50 [2]: > 40 mg/kg

CC(CC(C(=O)N(C)C)(c1ccccc1)c1ccccc1)N1CC[C@@H](NC(=O)c2cccc(Cl)c2)[C@H](O)C1 (relative stereo) [Compound 10]
ED50 [1]: 0.04 mg/kg | ED50 [2]: > 40 mg/kg

CC(CC(C(=O)N(C)C)(c1ccccc1)c1ccccc1)N1CC[C@@H](NC(=O)c2cccc([N+](=O)[O-])c2Br)[C@H](O)C1 (relative stereo) [Compound 38]
ED50 [1]: 2.5 mg/kg | ED50 [2]: > 40 mg/kg
